Laboratory results: ChEMBL document CHEMBL1126382, “Synthesis and anti-HIV activity of pyrrolo-[1,2-d]-(1,4)-benzodiazepin-6-ones” (Bioorg Med Chem Lett, 1992)
Values after ≈ are worked out from the molar mass of the structure shown.

Experiments:
MT2 [1] = experiment: Inhibition concentration required to protect 90% of cells(MT-2) from HIV induced death was determined; type: functional; conditions: Homo sapiens
MT2 [2] = experiment: Inhibition concentration required to protect 50% of cells(MT-2) from HIV induced death was determined; type: functional; conditions: Homo sapiens, read-out: TC50 (the source's name)
MT2 [3] = experiment: Inhibition concentration required to protect 90% of cells(MT-2) from HIV-1(rf) induced death was determined; type: functional; conditions: Homo sapiens
MT2 [4] = experiment: Inhibition concentration required to protect 90% of cells(MT-2) from HIV-1(3b) induced death was determined; type: functional; conditions: Homo sapiens
MT2 [5] = experiment: Inhibition concentration required to protect 50% of cells(MT-2) from HIV-1(3b) induced death was determined; type: functional; conditions: Homo sapiens, read-out: TC50 (the source's name)
MT2 [6] = experiment: Inhibition concentration required to protect 50% of cells(MT-2) from HIV-1(rod) induced death was determined; type: functional, cell-based; conditions: Homo sapiens
[7] = system: Human immunodeficiency virus 1; experiment: (§1) Inhibitory concentration against HIV-1 was determined; type: functional, organism-based
[8] = system: Human immunodeficiency virus 1; experiment: as §1; type: functional

Molecule `O=Cc1ccc2n1[C@@H](Cc1ccccc1)C(=O)Nc1ccccc1-2` has an IC90 (MT2 [1]) greater than 2.5 µg/mL and a CC50 (MT2 [2]) of 2.5 µg/mL (≈ 7.9 µM).

Work on `CC(C)=CCN1Cc2cc(Cl)cc3nc(S)n(c23)CC1C` (stereo not drawn) [TIBO] yielded an IC90 (MT2 [3]) of 0.15 µg/mL (≈ 0.466 µM), an IC90 (MT2 [4]) of 1.5 µg/mL (≈ 4.66 µM) and a CC50 (MT2 [5]) of 55 µg/mL (≈ 171 µM). It also gave an IC50 (MT2 [6]) greater than 50 µg/mL.

With `Cc1ccnc2c1NC(=O)c1cccnc1N2C1CC1` [NEVIRAPINE] the IC50 [7] was 0.04 µM.

`O=C(C[C@H]1C(=O)Nc2ccccc2-c2cccn21)OCc1ccccc1` showed an IC90 (MT2 [3]) of 0.29 µg/mL (≈ 0.837 µM), an IC90 (MT2 [1]) of 0.29 µg/mL (≈ 0.837 µM) and an IC90 (MT2 [4]) greater than 0.3 µg/mL. It also gave a CC50 (MT2 [5]) greater than 10 µg/mL, a CC50 (MT2 [2]) of 10 µg/mL (≈ 28.9 µM) and an IC50 (MT2 [6]) of 3 µg/mL (≈ 8.66 µM). For the same molecule, the IC90 [8] was 0.8 µM.

`O=C1Cn2cccc2-c2ccccc2N1` was tested, and the IC90 (MT2 [1]) was greater than 50 µg/mL and the CC50 (MT2 [2]) was greater than 50 µg/mL.

For `O=Cc1ccc2n1CC(=O)Nc1ccccc1-2`, the IC90 (MT2 [1]) was greater than 50 µg/mL and the CC50 (MT2 [2]) was greater than 50 µg/mL.

`CN1C(=O)[C@H](Cc2ccc(O)cc2)n2cccc2-c2ccccc21` gave an IC90 (MT2 [1]) greater than 5.2 µg/mL and a CC50 (MT2 [2]) of 5.2 µg/mL (≈ 16.3 µM).

`O=C1Nc2ccccc2-c2cccn2[C@H]1Cc1ccc(O)cc1` showed an IC90 (MT2 [1]) greater than 23 µg/mL and a CC50 (MT2 [2]) of 23 µg/mL (≈ 75.6 µM).

Molecule `O=C1c2ccccc2C(=O)N1CCCCN1C(=O)[C@H](Cc2ccc(O)cc2)n2cccc2-c2ccccc21` has an IC90 (MT2 [1]) greater than 23 µg/mL and a CC50 (MT2 [2]) of 23 µg/mL (≈ 45.5 µM).

Work on `O=C(O)C[C@H]1C(=O)Nc2ccccc2-c2cccn21` yielded an IC90 (MT2 [1]) greater than 50 µg/mL and a CC50 (MT2 [2]) greater than 50 µg/mL.

`O=C1Nc2ccccc2-c2cccn2[C@H]1Cc1ccccc1` gave an IC90 (MT2 [1]) greater than 21 µg/mL and a CC50 (MT2 [2]) of 21 µg/mL (≈ 72.8 µM).

`O=C1c2ccccc2C(=O)N1CCCCCN1C(=O)[C@H](Cc2ccc(O)cc2)n2cccc2-c2ccccc21` was tested, and the IC90 (MT2 [1]) was 2.6 µg/mL (≈ 5 µM) and the CC50 (MT2 [2]) was greater than 50 µg/mL.

In the case of `CC(C)=CCN1Cc2cccc3[nH]c(=S)n(c23)C[C@@H]1C`, the IC50 [7] is reported as 0.028 µM.

`O=C1[C@H](Cc2ccc(O)cc2)n2cccc2-c2ccccc2N1CCc1ccc(O)cc1` gave an IC90 (MT2 [1]) of 0.8 µg/mL (≈ 1.88 µM) and a CC50 (MT2 [2]) of 10 µg/mL (≈ 23.6 µM).
